In patent publication US20260042764A1, “COMPOSITIONS AND METHODS FOR INHIBITION OF KRAS” (TheRas, Inc., priority 2022, published 2026):

Experiments:
[1] = target: T1, Avi-KRAS G12V (1-169) GppNHp/RAF1 RBD-3xFLAG (52-151) (Homo sapiens, UniProt P01116, G12V); test: Raf1-KRAS G12V-GppNHP disruption HTRF assay (Biological Example 1); assay type: binding
T1 construct: Avi-KRAS G12V (1-169)
Procedure, shortened: (§1)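 Compounds were tested for disruption of KRAS–RAF1 RBD binding by HTRF in 50 mM Tris pH 7.5, 100 mM NaCl, 5 mM MgCl2, 0.1% BSA, 0.01% Tween, 10% DMSO. Protein mix was incubated 1 h at room temperature with shaking, then detection reagents added for another 1 h. Activity expressed as percent of DMSO control.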

GP2d cells (KRAS G12D) = test: Cell-based pERK HTRF assay in GP2d cell (Biological Example 2); conditions: GP2d (KRAS G12D) cells, pERK HTRF
Procedure, shortened: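 GP2d (KRAS G12D) cells were plated in DMEM/10% FBS and treated the next day for 60 min with compounds. Dosing used 9-point half-log series starting at 1 μM or 100 nM in 0.25% DMSO. Lysates were read by HTRF pERK (d2/Eu cryptate antibodies) after 4–24 h at room temperature, with excitation at 320 nm and emission at 615 nm.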

[2] = target: T2, Avi-KRAS G12R (1-169) GppNHp/RAF1 RBD-3xFLAG (52-151) (Homo sapiens, UniProt P01116, G12R); test: Raf1-KRAS G12R-GppNHP disruption HTRF assay (Biological Example 1); assay type: binding
T2 construct: Avi-KRAS G12R (1-169)
T2 sequence (P01116 1-169 isoform P01116-2 G12R): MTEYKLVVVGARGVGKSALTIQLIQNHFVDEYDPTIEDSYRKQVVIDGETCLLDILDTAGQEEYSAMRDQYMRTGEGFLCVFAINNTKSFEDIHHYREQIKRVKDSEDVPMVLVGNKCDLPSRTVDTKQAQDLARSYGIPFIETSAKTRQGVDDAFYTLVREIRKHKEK
Procedure, shortened: as §1

[3] = target: T3, Avi-KRAS G12D (1-169) GppNHp/RAF1 RBD-3xFLAG (52-151) (Homo sapiens, UniProt P01116, G12D); test: Raf1-KRAS G12D-GppNHP disruption HTRF assay (Biological Example 1); assay type: binding
T3 construct: Avi-KRAS G12D (1-169)
T3 sequence (P01116 1-169 isoform P01116-2 G12D): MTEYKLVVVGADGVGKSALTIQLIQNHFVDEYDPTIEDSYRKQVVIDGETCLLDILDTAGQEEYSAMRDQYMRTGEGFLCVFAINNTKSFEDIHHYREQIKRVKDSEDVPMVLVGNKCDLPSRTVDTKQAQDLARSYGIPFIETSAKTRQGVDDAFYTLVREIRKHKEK
Procedure, shortened: as §1

SW620 cells (KRAS G12V) = test: Cell-based pERK HTRF assay in SW620 cell (Biological Example 4); conditions: pERK HTRF
Procedure, shortened: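 SW620 cells were treated for 4 h with compound in a 9-point half-log series from 1 μM top (0.25% DMSO), then lysed. Phospho-ERK was detected by HTRF with d2 and Eu cryptate antibodies after 4–24 h at room temperature, read at 615 nm emission.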

[4] = target: T4, Avi-KRAS WT (1-169) GppNHp/RAF1 RBD-3xFLAG (52-151) (Homo sapiens, UniProt P01116); test: Raf1-KRAS WT-GppNHP disruption HTRF assay (Biological Example 1); assay type: binding
T4 construct: Avi-KRAS WT (1-169)
T4 sequence (P01116 1-169 isoform P01116-2): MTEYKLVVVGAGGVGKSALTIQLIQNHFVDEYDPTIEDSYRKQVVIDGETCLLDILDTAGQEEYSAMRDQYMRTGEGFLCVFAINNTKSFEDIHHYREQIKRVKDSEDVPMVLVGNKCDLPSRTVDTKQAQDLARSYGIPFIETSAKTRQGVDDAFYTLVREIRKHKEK
Procedure, shortened: as §1

[5] = Homo sapiens, SW-620, SW620 (KRAS G12V) cells
[6] = KRAS G12V, GppNHp-loaded, Table 11
[7] = KRAS G12R, GppNHp-loaded, Table 11
[8] = KRAS G12D, GppNHp-loaded, Table 11
[9] = KRAS WT, GppNHp-loaded, Table 11
[10] = KRAS G12V, GppNHp-loaded, class symbols
[11] = KRAS G12R, GppNHp-loaded, class symbols
[12] = KRAS G12D, GppNHp-loaded, class symbols
[13] = Homo sapiens, SW-620, SW620 (KRAS G12V) cells, class symbols
[14] = KRAS WT, GppNHp-loaded, class symbols

T1 sequence (P01116 1-169 isoform P01116-2 G12V): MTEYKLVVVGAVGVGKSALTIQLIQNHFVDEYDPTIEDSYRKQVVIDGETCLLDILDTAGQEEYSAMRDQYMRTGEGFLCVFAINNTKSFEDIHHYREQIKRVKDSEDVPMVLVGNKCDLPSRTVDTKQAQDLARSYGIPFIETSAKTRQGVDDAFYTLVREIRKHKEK

| IC50 ([1]; KRAS G12V-GppNHp/RAF1 RBD HTRF) | IC50 (GP2d cells (KRAS G12D); GP2d) | IC50 ([2]; KRAS G12R-GppNHp/RAF1 RBD HTRF) | IC50 ([3]; KRAS G12D-GppNHp/RAF1 RBD HTRF) | IC50 (SW620 cells (KRAS G12V); [5]) | IC50 ([4]; KRAS WT-GppNHp/RAF1 RBD HTRF) | IC50 [1, 10] | IC50 (GP2d cells (KRAS G12D); GP2d, class symbols) | IC50 [2, 11] | IC50 [3, 12] | IC50 (SW620 cells (KRAS G12V); [13]) | IC50 [4, 14] | SMILES | other results |
| --- | --- | --- | --- | --- | --- | --- | --- | --- | --- | --- | --- | --- | --- |
| 1000 to 10000 nM | < 100 nM | 100 to 1000 nM | 100 to 1000 nM | < 100 nM | 100 to 1000 nM | – | – | – | – | – | – | C[C@@H]1[C@H](N(C)c2nc(OC[C@@]34CCCN3C[C@H](F)C4)nc3c(F)c(-c4ccc(F)c5sc(N)c(C#N)c45)c(C(F)(F)F)cc23)CCN1C(=O)C1(F)CC1 [Compound 425] | – |
| – | – | – | – | – | – | – | – | – | – | – | – | CC(=O)N1CC[C@@H](N(C)c2nc(OC[C@@]34CCCN3C[C@H](F)C4)nc3c(F)c(-c4ccc(F)c5sc(N)c(C#N)c45)c(C(F)(F)F)cc23)[C@H]1C (single isomer, unassigned) [Compound 192] | IC50 [1, 6]: > 10000 nM; IC50 (GP2d cells (KRAS G12D)): > 1000 nM; IC50 [2, 7]: > 10000 nM; IC50 [3, 8]: > 10000 nM; IC50 (SW620 cells (KRAS G12V); SW620 (KRAS G12V) cells): > 1000 nM; IC50 [4, 9]: > 10000 nM |
| 1000 to 10000 nM | < 100 nM | 100 to 1000 nM | 100 to 1000 nM | < 100 nM | 100 to 1000 nM | – | – | – | – | – | – | CN1CC[C@H](N(C)c2nc(OC[C@@]34CCCN3C[C@H](F)C4)nc3c(F)c(-c4ccc(F)c5sc(N)c(C#N)c45)c(C(F)(F)F)cc23)CC1=O [Compound 281] | – |
| – | – | – | – | – | – | 100 to 1000 nM | < 100 nM | 100 to 1000 nM | 100 to 1000 nM | < 100 nM | 100 to 1000 nM | CCN1C[C@H](N(CC)c2nc(OC[C@@]34CCCN3C[C@H](F)C4)nc3c(F)c(-c4ccc(F)c5sc(N)c(C#N)c45)c(C(F)(F)F)cc23)CC1=O (atropisomer, axis not shown) [Compound 699] | – |
| – | – | – | – | – | – | < 100 nM | < 100 nM | < 100 nM | < 100 nM | < 100 nM | < 100 nM | CCN(c1nc(OCC23CCCN2CC(F)C3)nc2c(F)c(-c3ccc(F)c4sc(N)c(C#N)c34)c(C(F)(F)F)cc12)C1CCN(C(=O)c2ccncc2)C1 (stereo not drawn) [Compound 709] | – |
| > 10000 nM | 100 to 1000 nM | > 10000 nM | 1000 to 10000 nM | < 100 nM | > 10000 nM | – | – | – | – | – | – | Cn1ncc2c1CN(c1nc(OC[C@@]34CCCN3C[C@H](F)C4)nc3c(F)c(-c4ccc(F)c5sc(N)c(C#N)c45)c(C(F)(F)F)cc13)CC2 [Compound 352] | – |
| – | – | – | – | – | – | < 100 nM | < 100 nM | < 100 nM | < 100 nM | < 100 nM | < 100 nM | CCN(c1nc(OC[C@@]23CCCN2C[C@H](F)C3)nc2c(F)c(-c3ccc(F)c4sc(N)c(C#N)c34)c(C(F)(F)F)cc12)[C@H]1CCN(C(=O)OC2CC(OC)C2)C1 (stereo partly drawn) [Compound 791] | – |
| 1000 to 10000 nM | 100 to 1000 nM | 1000 to 10000 nM | 1000 to 10000 nM | 100 to 1000 nM | 1000 to 10000 nM | – | – | – | – | – | – | N#Cc1c(N)sc2c(F)ccc(-c3c(C(F)(F)F)cc4c(N5CCc6[nH]ncc6C5)nc(OCC56CCCN5CC(F)C6)nc4c3F)c12 (stereo not drawn) [Compound 449] | – |
| – | < 100 nM | – | – | < 100 nM | – | – | – | – | – | – | – | N#Cc1c(N)sc2c(F)ccc(-c3c(C(F)(F)F)cc4c(N5CCCS(=O)(=O)CC5)nc(OC[C@@]56CCCN5C[C@H](F)C6)nc4c3F)c12 [Compound 263] | IC50 [1, 6]: 100 to 1000 nM; IC50 [2, 7]: < 100 nM; IC50 [3, 8]: < 100 nM; IC50 [4, 9]: < 100 nM |
| 1000 to 10000 nM | < 100 nM | > 10000 nM | 1000 to 10000 nM | < 100 nM | < 100 nM | – | – | – | – | – | – | CN(C)C(=O)c1nc2c(s1)CN(c1nc(OCC34CCCN3CC(F)C4)nc3c(F)c(-c4ccc(F)c5sc(N)c(C#N)c45)c(C(F)(F)F)cc13)CC2 (stereo not drawn) [Compound 404] | – |
| – | – | – | – | – | – | < 100 nM | < 100 nM | < 100 nM | < 100 nM | < 100 nM | < 100 nM | CCN1C[C@@H]2C[C@H](N(CC)c3nc(OC[C@@]45CCCN4C[C@H](F)C5)nc4c(F)c(-c5ccc(F)c6sc(N)c(C#N)c56)c(C(F)(F)F)cc34)CN2C1=O (atropisomer, axis not shown) [Compound 762] | – |
| 1000 to 10000 nM | < 100 nM | 1000 to 10000 nM | 100 to 1000 nM | < 100 nM | 100 to 1000 nM | – | – | – | – | – | – | C[C@H]1[C@H](N(C)c2nc(OC[C@@]34CCCN3C[C@H](F)C4)nc3c(F)c(-c4ccc(F)c5sc(N)c(C#N)c45)c(C(F)(F)F)cc23)CCN1C(=O)C1CC1 [Compound 301] | – |
